{
  "source": "PubChem BioAssay AID588449",
  "about": "(Broad Institute, 2011)",
  "note": "Calls of active or inactive are those of the source.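 The calls were made as follows: active = inhibitors whose fitted AC50 is no more than ten times their highest valid tested dose; inconclusive = flat fit with 30 to 70% inhibition, or poor fit; inactive = the rest.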",
  "data": [
    {"biological_target": "Dual specificity tyrosine-phosphorylation-regulated kinase 1A (Rattus norvegicus) (UniProt Q63470)", "assay": "Dyrk1A kinase inhibitors, NFAT signaling, dose response, biochemical, cherry-pick, plate reader, 2124-03 (AID 588449)", "conditions": "recombinant Dyrk1A, ADP-Glo luminescence, NFATc1 peptide", "values": [
      {"smiles": "Fc1c(-c2ccc3ncnc(NCc4cccs4)c3c2)ccc2c1OCO2", "AC50": "83.2 nM"},
      {"smiles": "FC(F)(F)c1cccc(Nc2nccc(-c3ccc4c(c3)OCO4)n2)c1", "AC50": "< 5.6 nM"},
      {"smiles": "c1csc(CCNc2ncnc3ccc(-c4ccc5c(c4)OCO5)cc23)c1", "AC50": "< 5.6 nM"},
      {"smiles": "Cc1nc(CNc2ncnc3ccc(-c4ccc5c(c4)OCO5)cc23)cs1", "AC50": "168 nM"},
      {"smiles": "Cc1ccsc1CN(C)c1ncnc2ccc(-c3ccc(CO)o3)cc12", "AC50": "905 nM"},
      {"smiles": "Cc1ccc(CN(C)c2ncnc3ccc(-c4ccc5c(c4)OCO5)cc23)o1", "AC50": "10.4 nM"},
      {"smiles": "Clc1ccc(CNc2nccc(-c3ccc4cn[nH]c4c3)n2)cc1Cl", "AC50": "21.6 nM"},
      {"smiles": "CN(C)c1ccc(-c2nccc(NCc3cccs3)n2)cc1", "AC50": "5460 nM"},
      {"smiles": "c1cncc(CNc2ccnc(-c3ccc4cn[nH]c4c3)n2)c1", "AC50": "3540 nM"},
      {"smiles": "COc1ccc(-c2nccc(NCc3ccc(C)cc3)n2)cc1", "AC50": "< 5.6 nM"},
      {"smiles": "c1cncc(CNc2nccc(-c3ccc4[nH]ncc4c3)n2)c1", "AC50": "123 nM"},
      {"smiles": "Clc1ccccc1-c1ccc2ncnc(NCc3ccc4c(c3)OCO4)c2c1", "AC50": "3160 nM"},
      {"smiles": "Cc1occc1CNc1ncnc2ccc(-c3ccc4c(c3)OCO4)cc12", "AC50": "121 nM"},
      {"smiles": "Cc1c(-c2ccnc(NCc3cccnc3)n2)sc(=O)n1C", "AC50": "410 nM"},
      {"smiles": "c1cncc(CNc2nccc(-c3ccc4c(c3)OCO4)n2)c1", "AC50": "48 nM"},
      {"smiles": "c1nc(NCC2CCCC2)c2cc(-c3ccc4c(c3)OCO4)ccc2n1", "AC50": "14.6 nM"},
      {"smiles": "Cc1ccsc1CN(C)c1ncnc2ccc(-c3ccoc3)cc12", "AC50": "60.9 nM"},
      {"smiles": "Brc1ccc(CNc2nccc(-c3ccc4c(c3)OCO4)n2)cc1Br", "AC50": "209 nM"},
      {"smiles": "CCOC(=O)c1ccc(-c2ccc3ncnc(N(C)Cc4sccc4C)c3c2)o1", "AC50": "486 nM"},
      {"smiles": "CCCNc1ncnc2ccc(-c3ccc4c(c3)OCO4)cc12", "AC50": "36.5 nM"},
      {"smiles": "Clc1ccc(CNc2cc(-c3ccc4c(c3)OCO4)ncn2)cc1", "AC50": "11300 nM"},
      {"smiles": "c1coc(CCNc2ncnc3ccc(-c4ccc5c(c4)OCO5)cc23)c1", "AC50": "74.8 nM"},
      {"smiles": "Cc1ccsc1CNc1ncnc2ccc(-c3ccc4c(c3)OCO4)cc12", "AC50": "7.9 nM"},
      {"smiles": "c1cc(-c2ccc3c(c2)OCO3)nc(Nc2ccc3c(c2)OCO3)n1", "AC50": "< 5.6 nM"},
      {"smiles": "Clc1cc(Cl)cc(CNc2cc(-c3ccc4c(c3)OCO4)ncn2)c1", "AC50": "340 nM"},
      {"smiles": "Cc1ccc(CNc2ncnc3ccc(-c4ccc5c(c4)OCO5)cc23)o1", "AC50": "62.5 nM"},
      {"smiles": "c1nc(NCC2CCCO2)c2cc(-c3ccc4c(c3)OCO4)ccc2n1", "note": "(stereo not given)", "AC50": "< 5.6 nM"},
      {"smiles": "Cc1c(-c2ccnc(NCc3ccc(Cl)cc3)n2)sc(=O)n1C", "AC50": "109 nM"},
      {"smiles": "Cc1ccc(CNc2ncnc3ccc(-c4ccoc4C)cc23)o1", "AC50": "2560 nM"},
      {"smiles": "Clc1ccc(CNc2nccc(-c3ccc4[nH]ncc4c3)n2)cc1Cl", "AC50": "114 nM"},
      {"smiles": "Cc1noc(CN(C)c2ncnc3ccc(-c4ccc5c(c4)OCO5)cc23)n1", "AC50": "21.1 nM"},
      {"smiles": "Clc1cc(Cl)cc(CNc2ncncc2-c2ccc3c(c2)OCO3)c1", "AC50": "1060 nM"},
      {"smiles": "Cc1nc(CNc2ncnc3ccc(-c4ccoc4)cc23)cs1", "AC50": "907 nM"},
      {"smiles": "c1csc(CNc2ncnc3ccc(-c4ccoc4)cc23)c1", "AC50": "326 nM"},
      {"smiles": "c1cncc(CNc2ccnc(-c3ccc4[nH]ncc4c3)n2)c1", "AC50": "711 nM"},
      {"smiles": "CCN(Cc1cccs1)c1ncnc2ccc(-c3ccc4c(c3)OCO4)cc12", "AC50": "18 nM"},
      {"smiles": "CS(=O)(=O)CCNCc1ccc(-c2ccc3ncnc(Nc4ccc(OCc5cccc(F)c5)c(Cl)c4)c3c2)o1", "AC50": "> 12000 nM (inactive)"},
      {"smiles": "c1nc(NCC2CCCOC2)c2cc(-c3ccc4c(c3)OCO4)ccc2n1", "note": "(stereo not given)", "AC50": "6.72 nM"},
      {"smiles": "Brc1cc(Br)cc(CNc2nccc(-c3ccc4c(c3)OCO4)n2)c1", "AC50": "8.38 nM"},
      {"smiles": "c1cncc(CNc2cc(-c3ccc4c(c3)OCO4)ncn2)c1", "AC50": "1970 nM"},
      {"smiles": "O=[N+]([O-])c1cc(Nc2nccc(-c3ccc4c(c3)OCO4)n2)cc(C(F)(F)F)c1", "AC50": "2850 nM"},
      {"smiles": "Cc1nc(CN(C)c2ncnc3ccc(-c4ccc5c(c4)OCO5)cc23)cs1", "AC50": "20.8 nM"},
      {"smiles": "Clc1ccc(Nc2nccc(-c3ccc4c(c3)OCO4)n2)cc1", "AC50": "228 nM"},
      {"smiles": "c1cncc(CNc2nccc(-c3ccc4cn[nH]c4c3)n2)c1", "AC50": "217 nM"},
      {"smiles": "Clc1ccc(CNc2ccnc(-c3ccc4[nH]ncc4c3)n2)cc1Cl", "AC50": "19.1 nM"},
      {"smiles": "Cc1csc(CN(C)c2ncnc3ccc(-c4ccc5c(c4)OCO5)cc23)n1", "AC50": "1970 nM"},
      {"smiles": "CN(Cc1nccs1)c1ncnc2ccc(-c3ccc4c(c3)OCO4)cc12", "AC50": "< 5.6 nM"},
      {"smiles": "Clc1ccc(CNc2ncncc2-c2ccc3c(c2)OCO3)cc1", "AC50": "9670 nM"},
      {"smiles": "CN(Cc1cccs1)c1ncnc2ccc(-c3ccc4c(c3)OCO4)cc12", "AC50": "49.2 nM"},
      {"smiles": "Clc1ccc(CNc2nccc(-c3ccc4c(c3)OCO4)n2)cc1Cl", "AC50": "84.3 nM"},
      {"smiles": "Clc1ccc(CNc2nccc(-c3ccc4c(c3)OCCO4)n2)cc1Cl", "AC50": "19.8 nM"}
    ]},
    {"biological_target": "Dual specificity tyrosine-phosphorylation-regulated kinase 1A (Rattus norvegicus) (UniProt Q63470)", "assay": "Dyrk1A kinase inhibitors, NFAT signaling, dose response, biochemical, cherry-pick, plate reader, 2124-03 (AID 588449)", "conditions": "recombinant Dyrk1A, ADP-Glo luminescence, NFATc1 peptide; at 12 µM (top of the series)", "values": [
      {"smiles": "Cn1ccc2cc(-c3ccc4ncnc(NCc5ccc6c(c5)OCO6)c4c3)ccc21", "activity change, negative = inhibition": "inactive"},
      {"smiles": "c1csc(CNc2ncnc3ccc(-c4ccc5c(c4)OCO5)cc23)n1", "activity change, negative = inhibition": "inactive"},
      {"smiles": "Cc1cccc(CNc2ncnc3ccc(-c4cccc(Cl)c4)cc23)c1", "activity change, negative = inhibition": "inactive"},
      {"smiles": "Cn1ccc2cc(-c3ccc4ncnc(NCc5cccc(F)c5)c4c3)ccc21", "activity change, negative = inhibition": "inactive"}
    ]}
  ]
}
